Source: PMC9861386, “N-Heterocyclic Carbene-Iridium Complexes as Photosensitizers for In Vitro Photodynamic Therapy to Trigger Non-Apoptotic Cell Death in Cancer Cells” (Molecules, 2023)
Like-named read-outs stand apart in the source and are kept apart here.

Assays:
[1] = system: MCF7/FasR breast cancer cells; assay: MTT cell viability, 72 h, dark or 458 nm irradiation; type: cell-based, human; conditions: for GI50: 72 h, MTT; for PI MCF7: GI50 non-irradiated / GI50 irradiated; for SI vs MC3T3, MCF7 Blue / SI vs NIH, MCF7 Blue: blue light; for SI vs MC3T3, MCF7 Blue / SI vs MC3T3, MCF7 Dark: GI50 MC3T3 / GI50 MCF7; for SI vs NIH, MCF7 Blue / SI vs NIH, MCF7 Dark: GI50 NIH-3T3 / GI50 MCF7
Protocol: (§1) For all biology experiments, the compounds were solubilized in DMSO to reach a final fixed concentration equal to 0.1% v/v to avoid cytotoxicity caused by DMSO [89]. The results are normalized to controls (0.1% v/v DMSO). Depending on the cell type, approximatively 1000 to 10,000 cells/cm^2 were seeded in 48-well plates for MTT, ATP and GSH assays and 60 mm Petri dishes for Western blots. Cells were allowed to attach overnight and then incubated for 4 h with the different complexes (in the dark), then irradiated for 10 min, followed by an incubation in the dark up to 72 h.
(§2) Irradiation was conducted using an in-house device: a series of blue light LEDs selected according to the absorption spectra of the compounds at a 458 nm wavelength with an emitted power of 9.6 watts. The absorbed energy, or irradiance, was measured at 458 nm with a Thorlabs Optical Power Meter PM100A at 5 and 10 cm distance between the cell layer and the light source and expressed as mW/cm^2.
(§3) A tetrazolium-based MTT reagent (3-(4,5-dimethylthiazol-2-yl)-2,5-diphenyltetrazolium bromide) was used to determine cell viability, as previously described. After 72 h of treatment at 37 °C and 5% CO2, cells were incubated with 25 μL MTT solution (5 mg/mL; Sigma-Aldrich) for 4 h. After solubilization with 500 μL of lysis buffer (DMSO), formazan was quantified by spectrophotometry with a microplate reader at 570 nm absorbance (ClarioSTAR, BMG LabTech, Champigny-sur-Marne, France). GI50 values corresponding to the concentration that caused 50% inhibition of cell proliferation were calculated from dose–response curves obtained by nonlinear regression analysis. All results were calculated from data obtained in at least three independent experiments.

A549 lung cancer cells = assay: as above; type: cell-based, human; conditions: for GI50: 72 h, MTT; for PI A549: GI50 non-irradiated / GI50 irradiated; for SI vs MC3T3, A549 Blue / SI vs NIH, A549 Blue: blue light; for SI vs MC3T3, A549 Blue / SI vs MC3T3, A549 Dark: GI50 MC3T3 / GI50 A549; for SI vs NIH, A549 Blue / SI vs NIH, A549 Dark: GI50 NIH-3T3 / GI50 A549
Protocol: as §1, §2, §3

[2] = system: PC-3 prostate cancer cells; assay: as above; type: cell-based, human; conditions: for GI50: 72 h, MTT; for PI PC-3: GI50 non-irradiated / GI50 irradiated; for SI vs MC3T3, PC-3 Blue / SI vs NIH, PC-3 Blue: blue light; for SI vs MC3T3, PC-3 Blue / SI vs MC3T3, PC-3 Dark: GI50 MC3T3 / GI50 PC-3; for SI vs NIH, PC-3 Blue / SI vs NIH, PC-3 Dark: GI50 NIH-3T3 / GI50 PC-3
Protocol: as §1, §2, §3

HeLa cervix cancer cells = assay: as above; type: cell-based, human; conditions: for GI50: 72 h, MTT; for PI HeLa: GI50 non-irradiated / GI50 irradiated; for SI vs MC3T3, HeLa Blue / SI vs NIH, HeLa Blue: blue light; for SI vs MC3T3, HeLa Blue / SI vs MC3T3, HeLa Dark: GI50 MC3T3 / GI50 HeLa; for SI vs NIH, HeLa Blue / SI vs NIH, HeLa Dark: GI50 NIH-3T3 / GI50 HeLa
Protocol: as §1, §2, §3

PC-3 = assay: MTT cytotoxicity, 48 h; type: cell-based, human; conditions: for GI50: MTT; for SI (PC-3): NIH3T3 vs PC-3
Protocol: (§4) The in vitro cytotoxicity of iridium(III) complexes 4a–4g was first evaluated against cancer cell lines PC-3 (human prostate) and T24 (human bladder) and the non-cancerous NIH-3T3 cell line (murine fibroblasts) using colorimetric MTT tests after 48 h of treatment. The dimeric iridium precursor [IrCl(ppy)2]2 was used as reference and the results are summarized in Table S1 (Supplementary Materials) in the supporting information file. […] The complexes were also evaluated for their cytotoxicity towards healthy NIH-3T3 cells, giving access to the selectivity index (SI). […] No linear correlation between lipophilicity and anti-cancer activity was found for the iridium(III) complexes 4a–4g. For the following biological studies, we focused on the C1 series.
(§5) Table S1. Cytotoxic activity of iridium(III) NHC complexes 4a−4g expressed as GI50 (μM) values towards selected cancer and normal cell lines as determined by MTT assay (48 h).a Complex PC-3 T24 NIH3T3 SI (PC-3) SI (T24) […]
(§6) a GI50 values correspond to the concentration of complexes causing 50 % inhibition of cell growth.
(§7) Data were obtained from three independent experiments.
(§8) The cytotoxic effects of the NHC precursors, the imidazolium salts, which represents the potential hydrolysis and/or degradation products of the complexes, have been published before [SI-1, SI-2]. […]

T24 = assay: MTT cytotoxicity, 48 h; type: cell-based, human; conditions: for GI50: MTT; for SI (T24): NIH3T3 vs T24
Protocol: as §4, §5, §6, §7, §8

NIH3T3 = assay: MTT cytotoxicity, 48 h; type: cell-based, murine
Protocol: as §4, §5, §6, §7, §8

[3] = 458 nm irradiation 10 min, read-out: GI50 MCF7 Blue
[4] = 458 nm irradiation 10 min, read-out: GI50 A549 Blue
[5] = 458 nm irradiation 10 min, read-out: GI50 PC-3 Blue
[6] = 458 nm irradiation 10 min, read-out: GI50 HeLa Blue

SMILES | GI50 [1, 3] [nM] | PI MCF7 [1] | SI vs MC3T3, MCF7 Blue [1] | SI vs NIH, MCF7 Blue [1] | GI50 ([1]; dark, read-out: GI50 MCF7 Dark) [nM] | SI vs MC3T3, MCF7 Dark ([1]; dark) | SI vs NIH, MCF7 Dark ([1]; dark) | GI50 (A549 lung cancer cells; [4]) [nM] | PI A549 (A549 lung cancer cells) | SI vs MC3T3, A549 Blue (A549 lung cancer cells) | SI vs NIH, A549 Blue (A549 lung cancer cells) | GI50 (A549 lung cancer cells; dark, read-out: GI50 A549 Dark) [nM] | SI vs MC3T3, A549 Dark (A549 lung cancer cells; dark) | SI vs NIH, A549 Dark (A549 lung cancer cells; dark) | GI50 [2, 5] [nM] | PI PC-3 [2] | SI vs MC3T3, PC-3 Blue [2] | SI vs NIH, PC-3 Blue [2] | GI50 ([2]; dark, read-out: GI50 PC-3 Dark) [nM] | SI vs MC3T3, PC-3 Dark ([2]; dark) | also measured
CC(C)C[n+]1ccn2[c]1[Ir-3]13([c]4ccccc4-c4cccc[n+]41)([c]1ccccc1-c1cccc[n+]13)[c]1n(cc[n+]1CC(C)C)C2.F[P-](F)(F)(F)(F)F [Complex 4b] | 53 | 4.0 | 13.3 | 28.7 | 211 | 4.6 | 9.2 | 84 | 4.2 | 8.4 | 18.1 | 354 | 2.8 | 5.5 | 71 | 3.6 | 9.9 | 21.4 | 257 | 3.8 | SI vs NIH, PC-3 Dark ([2]; dark): 7.6; GI50 (HeLa cervix cancer cells; [6]): 294 nM; PI HeLa (HeLa cervix cancer cells): 2.1; SI vs MC3T3, HeLa Blue (HeLa cervix cancer cells): 2.4; SI vs NIH, HeLa Blue (HeLa cervix cancer cells): 5.2; GI50 (HeLa cervix cancer cells; dark, read-out: GI50 HeLa Dark): 625 nM; SI vs MC3T3, HeLa Dark (HeLa cervix cancer cells; dark): 1.6; SI vs NIH, HeLa Dark (HeLa cervix cancer cells; dark): 3.1; GI50 (PC-3): 510 nM; SI (PC-3) (PC-3): 6.9; GI50 (T24): 380 nM; SI (T24) (T24): 9.2; GI50 (NIH3T3): 3500 nM
F[P-](F)(F)(F)(F)F.c1ccc(C[n+]2ccn3[c]2[Ir-3]24([c]5ccccc5-c5cccc[n+]52)([c]2ccccc2-c2cccc[n+]24)[c]2n(cc[n+]2Cc2ccccc2)C3)cc1 [Complex 4c] | 61 | 4.1 | 21.8 | 43.8 | 248 | 4.7 | 11.0 | 171 | 2.4 | 7.8 | 15.6 | 407 | 2.9 | 6.7 | 116 | 2.9 | 11.5 | 23.0 | 336 | 3.5 | SI vs NIH, PC-3 Dark ([2]; dark): 8.1; GI50 (HeLa cervix cancer cells; [6]): 275 nM; PI HeLa (HeLa cervix cancer cells): 1.8; SI vs MC3T3, HeLa Blue (HeLa cervix cancer cells): 4.8; SI vs NIH, HeLa Blue (HeLa cervix cancer cells): 9.7; GI50 (HeLa cervix cancer cells; dark, read-out: GI50 HeLa Dark): 494 nM; SI vs MC3T3, HeLa Dark (HeLa cervix cancer cells; dark): 2.3; SI vs NIH, HeLa Dark (HeLa cervix cancer cells; dark): 5.5; GI50 (PC-3): 410 nM; SI (PC-3) (PC-3): 17.3; GI50 (T24): 430 nM; SI (T24) (T24): 16.5; GI50 (NIH3T3): 7100 nM
CSc1ccc(-[n+]2ccn3[c]2[Ir-3]24([c]5ccccc5-c5cccc[n+]52)([c]2ccccc2-c2cccc[n+]24)[c]2n(cc[n+]2-c2ccc(SC)cc2)C3)cc1.F[P-](F)(F)(F)(F)F [Complex 4d] | 117 | 3.1 | 15.4 | 23.8 | 365 | 5.7 | 6.4 | 617 | 2.4 | 2.9 | 4.5 | 1510 | 1.4 | 1.5 | 157 | 3.2 | 11.5 | 17.7 | 509 | 4.1 | SI vs NIH, PC-3 Dark ([2]; dark): 4.6; GI50 (HeLa cervix cancer cells; [6]): 817 nM; PI HeLa (HeLa cervix cancer cells): 1.9; SI vs MC3T3, HeLa Blue (HeLa cervix cancer cells): 2.2; SI vs NIH, HeLa Blue (HeLa cervix cancer cells): 3.4; GI50 (HeLa cervix cancer cells; dark, read-out: GI50 HeLa Dark): 1540 nM; SI vs MC3T3, HeLa Dark (HeLa cervix cancer cells; dark): 1.4; SI vs NIH, HeLa Dark (HeLa cervix cancer cells; dark): 1.5; GI50 (PC-3): 710 nM; SI (PC-3) (PC-3): 12.0; GI50 (T24): 950 nM; SI (T24) (T24): 8.9; GI50 (NIH3T3): 8500 nM
